# Patent US7863251B2, “Hepatic stellate cell specific promoter and uses thereof” (Agency for Science, Technology and Research, priority 2005, dated 2011)
# Tests used:
# [1] = system: endogenous GFAP mRNA in T6/lacZ/C1 cells; experiment: Real-time RT-PCR for endogenous rat GFAP mRNA in T6/lacZ/C1 cells; assay type: cell-based; conditions: TGF-β1 1 ng/ml
# Protocol: Total RNA was reverse transcribed to cDNA using Taqman's reverse transcription reagent (Cat. # N808-0234A total of […] of RNA in 7.7 μl nuclease-free water was added to 2 μl 10× reverse transcriptase buffer, 4.4 μl 25 mM magnesium chloride, 4 μl deoxyNTP mixtures, 1 μl random hexamers, 0.4 μl RNase inhibitor and 0.5 μl reverse transcriptase (50 U/μl) in a final reaction volume of 20 μl. The reaction was performed for 10 min at 25° C. (annealing), 30 min at 48° C. (cDNA synthesis) and 5 min at 95° C. (enzyme denaturation).
# Real-time quantitative PCR was carried out with an ABI 7500 Real Time PCR System (Applied Biosystems, CA, USA). One microliter of sample cDNA was used in each PCR reaction, with the housekeeping β-actin gene as a reference for normalization. The primers and probes for rat β-actin and GFAP were purchased from Taqman's assay-on-demand database. The PCR reaction was performed under a default profile consisting of 50° C. for 2 min (UNG activation), 95° C. for 10 min (enzyme denaturation) and 40 cycles of amplification (denaturation 15 seconds, annealing and extension 60 seconds).
# Relative quantitation of the target mRNA was calculated using the comparative threshold cycle (CT) methods as described in the User Bulletin #2 (ABI Prism 7700 Sequence Detection System). CT indicates the fractional cycle number at which the amount of amplified target reaches a fixed threshold within the linear phase of gene amplification. ΔCT, which reflects the difference between CT target and CT β-actin, is inversely correlated to the abundance of mRNA transcripts in the samples. ΔCT for each sample was normalized against control experiment or calibrator and expressed as ΔΔCT. Relative quantitation is given by 2^−ΔΔCT to express the up-regulation or down-regulation of the target gene under the treatments compared to the control.
# It was known that GFAP, along with desmin, SMAA, and vimentin, was expressed in the clonal T6 cells (Vogel et al. (2000), J Lipid Res. 41(6):882). Naturally, the endogenous GFAP should be expressed in the T6/lacZ/C1 cells as well. In order to investigate how the endogenous GFAP expression is regulated by TGF-β1 in the T6/lacZ/C1 cells during different time course, we quantified rat GFAP mRNA level using a real-time RT-PCR method. Cells were similarly grown and treated with TGF-β1 (1 ng/ml) for various times (0, 2, 8, 16, 24, 48 and 72 hours), as described for the enzymatic assay experiments above. Total RNA was isolated from different cells and quantified as described in Materials and Methods, and the results were depicted in FIG. 11.
# [2] = system: T6/lacZ/C1 cells (2.2 kb hGFAP-lacZ transgene); experiment: Quantitative solution assay of β-galactosidase activity in T6/lacZ/C1 cell extracts; assay type: cell-based, rat
# Protocol: To quantify the β-galactosidase activity in cell extracts reported in FIGS. 4 to 10, an enzyme assay kit (E2000, Promega, Wis., USA) was used to measure the specific activity of β-galactosidase, according to the manufacturer's instructions in a 96-well format. Briefly, the cells were washed twice with 1×PBS buffer (pH7.4), lysed for 15 minutes at room temperature with the reporter lysis buffer, and harvested using a cell scraper. The total cell extracts were appropriately diluted (5-10 fold), and assayed for the enzyme activity. The specific β-galactosidase activity was expressed in milliunit per milliliter (mU/ml) using a standard curve established from the β-galactosidase standard (provided with the kit). The protein concentration was measured with a BCA protein assay kit (Pierce, Ill., USA), and used to further convert the specific β-galactosidase activity from mU/ml to mU/μg total cellular protein. Six independent experiments were performed for each time and concentration data point.
# (§1) Cells were seeded into 12-well plates in full DMEM and 500 μg/ml Zeocin. Twelve hours prior to the cytokine treatment, medium was changed so that the cells were allowed to grow in low serum (0.5% FBS) DMEM. The cells at a confluence of 70-80% were incubated with various concentrations (0, 0.1, 1 and 10 […]) of recombinant human TGF-β1, PDGF-BB (BioVision, CA, USA) and 0, 0.1, 1 and 10 μg/ml lipopolysaccharide (LPS E. coli, Sigma) respectively for 0, 2, 8, 16, 24, 48 and 72 hours before they were harvested for β-galactosidase activity assay and real-time RT-PCR GFAP assay.
# A β-galactosidase activity assay kit (Promega, Wis., USA) was used to measure transgene expression level in the T6/lacZ/C1 clone, using the nontransfected T6 as a negative basal control. When grown in the full DMEM medium to 70-80% confluence, the T6/lacZ/C1 cells yielded an average reading of approximately 0.5 mU/μg, about five times of that in normal T6 cells. The basal reading in the T6 cells was not influenced by the addition of cytokines or LPS (data not shown). For comparison purpose, the β-galactosidase activity in a randomly selected C6 clone containing the 2.2 kb hGFAP-lacZ transgene (designated as C6/lacZ/C4) was measured to have an activity of about 2 mU/μg, […] of that in the T6/lacZ/C1 cells. When incubated with TGF-β1 (0 to 10 ng/ml), the C6/lacZ/C4 cells yielded an induction dynamics of 130 to 200% of the untreated control.
# To quantify specific transgene response to TGF-β1, we first set up an experiment to assess possible effects that serum concentration and culture duration may have on the transgene expression. T6/lacZ/C1 cells were initially grown in DMEM with high serum (10% FBS), and then some of the cells were starved with a DMEM with low serum (0.5% FBS) for 12 hours prior to the addition of TGF-β1 (1 ng/ml). After incubation for various times (0, 2, 8, 24, 48 and 72 hours), cells were harvested for β-galactosidase activity assay. […] After 72 hours, the level slipped to 58% of the value at 0 hour (P<0.001). The assay results were depicted in FIG. 8.
# To further dissect the TGF-β1 contribution to the transgene induction, we treated T6/lacZ/C1 cells grown in low serum with various concentrations of TGF-β1 (0, 0.1, 1, 10 ng/ml) and assayed the enzymatic activity for three time points (24, 48 and 72 hours). The assay results were plotted in FIG. 9. […] When the non-treatment groups were normalized to 1 and the magnitude of induction were plotted for the 10 ng/ml treatment groups at all three time points (FIG. 10), a trend of increasing induction with time was apparent.
# [3] = system: T6/lacZ/C1 cells (2.2 kb hGFAP-lacZ transgene); experiment: X-gal staining of T6/lacZ/C1 cells treated with TGF-β1, PDGF-BB and LPS; assay type: cell-based, rat; conditions: for X-gal blue staining (β-galactosidase) compared to the untreated: 0.1 to 10 ng/ml, 72 hours, X-gal one hour; for expression of a transgene operably coupled to a hGFAP promoter in HSC cell culture: summary statement
# Protocol: A lacZ reporter assay kit for cell staining (InvivoGen, CA, USA) was used to detect the reporter gene activity in both stable and transient transfectants. Development of the blue end product was monitored at different time intervals (15, 30, 60, 90, and 120 minutes). The staining results were documented with a digital camera (DP12) attached to an Olympus inverted bright field microscope (IX51).
# as §1
# To determine possible induction of GFAP-lacZ expression by molecules with profibrotic and proinflammatory properties in activated HSC the T6/lacZ/C1 cells were treated with TGF-β1, PDGF-BB and LPS respectively at various concentrations (0, 0.1, 1 and 10 ng/ml) in the full DMEM medium for 72 hours. The cells were then stained with X-gal for one hour and photographed. […] In order to obtain truly quantitative data, a solution assay was employed to measure possible up-regulation of β-galactosidase activity by TGF-β1 in experiments below.
Molecule,GFAP mRNA level relative to basal level (normalized to 1) at 0 hour ([1]; 16 hour (P<0.005)),GFAP mRNA level relative to basal level (normalized to 1) at 0 hour ([1]; 48 hours),GFAP mRNA level relative to basal level (normalized to 1) at 0 hour ([1]; 72 hours),GFAP mRNA level relative to basal level at 0 hour ([1]; first 24 hours),"induction of β-galactosidase activity vs non-induced ([2]; 1 ng/ml TGF-β1, low serum, 24 hours (P<0.05))","absolute enzymatic activity (β-galactosidase) ([2]; 10 ng/ml TGF-β1, 72 hours)","fold induction of β-galactosidase specific activity, non-treatment normalized to 1 ([2]; 10 ng/ml TGF-β1, 72 hours)","induction of β-galactosidase activity vs non-induced ([2]; 10 ng/ml TGF-β1, low serum, 24, 48 and 72 hours (P<0.001))","transgene expression level ([2]; TGF-β1 1 ng/ml, 0.5% FBS, 2 and 8 hours)","β-galactosidase specific activity at peak ([2]; TGF-β1 1 ng/ml, 0.5% FBS, 24 hour)","transgene expression level ([2]; TGF-β1 1 ng/ml, 0.5% FBS, 48 hours)","transgene expression level, % of the value at 0 hour ([2]; TGF-β1 1 ng/ml, 0.5% FBS, 72 hours)",X-gal blue staining (β-galactosidase) compared to the untreated [3],expression of a transgene operably coupled to a hGFAP promoter in HSC cell culture [3]
"TGF-β1: recombinant human TGF-β1 (BioVision), pro-fibrotic factor",0.5 fold,7 fold,8.5 fold,remained steady,induction was seen,0.43 mU/μg,nearly two fold,Significant induction,rapidly elevated,0.52 mU/μg,dropped to the same level as at 0 hour,58%,more intense blue staining,induced in a dose-dependent manner
"PDGF-BB: recombinant human PDGF-BB (BioVision), pro-proliferative factor (protein, UniProt P01127 82-190, looked up) Platelet-derived growth …: SLGSLTIAEPAMIAECKTRTEVFEISRRLIDRTNANFLVWPPCVEVQRCSGCCNNRNVQCRPTQVQLRPVQVRKIEIVRKKPIFKKATVTLEDHLACKCETVAAARPVT",–,–,–,–,–,–,–,–,–,–,–,–,less pronounced response,induced in a dose-dependent manner
